Measured values taken from patent publication US20240018161A1, “MODULATORS OF CYSTIC FIBROSIS TRANSMEMBRANE CONDUCTANCE REGULATOR” (VERTEX PHARMACEUTICALS INCORPORATED, priority 2020, published 2024).
Where two headings read alike, the source gives them in different places.

Molecular target: CFTR-mediated chloride transport in human intestinal epithelial enteroid cells (Homo sapiens, UniProt P13569)
Assay: Membrane potential dye, Enteroid Assay A
Format: cell-based
Settings: for EC50: read-out: Ent. A EC50
How it was run: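 Membrane potential dye (20 μM methyl oxonol, with 30 μM CaCCinh-A01 and 30 μM Chicago Sky Blue) loaded 25 min at room temperature into ROCK-inhibitor-seeded human enteroid cells. Chloride-free stimulation buffer triggered transport, followed by 15 min fluorescence. % Activity relative to 3 μM/3 μM/300 nM triple-combination control.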

[1] = enteroid cells incubated with test compound 18-24 hours, acute 10 μM forskolin and 300 nM N-[2,4-bis(1,1-dimethylethyl)-5-hydroxyphenyl]-1,4-dihydro-4-oxoquinoline-3-carboxamide
[2] = percentage of chloride transport of triple combination control (3 μM N-[(6-amino-2-pyridyl)sulfonyl]-6-(3-fluoro-5-isobutoxy-phenyl)-2-[(4S)-2,2,4-trimethylpyrrolidin-1-yl]pyridine-3-carboxamide based)

CFTR-mediated chloride transport in human intestinal epithelial enteroid cells, sequence (P13569 with tags, fused parts or gaps DEL508-508): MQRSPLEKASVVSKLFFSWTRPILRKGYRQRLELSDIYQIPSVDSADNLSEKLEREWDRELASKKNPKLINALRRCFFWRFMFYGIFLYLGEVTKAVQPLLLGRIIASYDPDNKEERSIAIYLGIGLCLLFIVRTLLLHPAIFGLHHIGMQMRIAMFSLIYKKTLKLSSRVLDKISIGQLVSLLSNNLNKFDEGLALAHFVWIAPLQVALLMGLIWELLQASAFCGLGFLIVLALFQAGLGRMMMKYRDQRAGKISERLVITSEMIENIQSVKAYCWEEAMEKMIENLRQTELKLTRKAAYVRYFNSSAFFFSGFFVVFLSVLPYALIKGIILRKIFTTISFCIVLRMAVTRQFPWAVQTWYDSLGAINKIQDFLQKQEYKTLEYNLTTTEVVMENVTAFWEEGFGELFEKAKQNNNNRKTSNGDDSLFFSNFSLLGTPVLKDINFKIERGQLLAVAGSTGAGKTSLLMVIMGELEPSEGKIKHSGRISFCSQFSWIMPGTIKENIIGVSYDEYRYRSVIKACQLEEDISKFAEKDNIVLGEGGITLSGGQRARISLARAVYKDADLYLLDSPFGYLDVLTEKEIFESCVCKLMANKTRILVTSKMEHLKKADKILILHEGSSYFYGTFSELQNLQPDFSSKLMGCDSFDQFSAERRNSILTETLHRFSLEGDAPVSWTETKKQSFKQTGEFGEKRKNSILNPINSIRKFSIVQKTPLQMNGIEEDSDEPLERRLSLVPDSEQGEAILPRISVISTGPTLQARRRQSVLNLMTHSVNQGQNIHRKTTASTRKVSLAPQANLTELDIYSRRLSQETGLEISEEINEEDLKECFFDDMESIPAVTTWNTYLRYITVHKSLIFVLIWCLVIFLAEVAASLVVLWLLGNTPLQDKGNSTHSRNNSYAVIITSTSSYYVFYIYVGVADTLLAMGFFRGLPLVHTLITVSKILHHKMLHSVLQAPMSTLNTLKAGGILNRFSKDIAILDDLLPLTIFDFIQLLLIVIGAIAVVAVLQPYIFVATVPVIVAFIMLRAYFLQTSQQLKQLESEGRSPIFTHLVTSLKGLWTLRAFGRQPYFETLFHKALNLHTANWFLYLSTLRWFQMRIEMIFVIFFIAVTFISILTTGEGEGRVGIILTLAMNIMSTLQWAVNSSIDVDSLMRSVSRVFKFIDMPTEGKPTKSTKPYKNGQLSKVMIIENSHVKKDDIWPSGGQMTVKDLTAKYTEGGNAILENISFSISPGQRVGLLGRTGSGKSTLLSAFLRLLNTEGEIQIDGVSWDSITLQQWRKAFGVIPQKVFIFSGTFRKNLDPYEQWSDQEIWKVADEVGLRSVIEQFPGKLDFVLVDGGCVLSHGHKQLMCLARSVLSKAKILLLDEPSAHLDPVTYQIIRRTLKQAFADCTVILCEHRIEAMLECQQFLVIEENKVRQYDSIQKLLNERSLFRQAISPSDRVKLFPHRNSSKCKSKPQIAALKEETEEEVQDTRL

SMILES | Ent. A Max Activity (%) (Enteroid Assay A) | EC50 (Enteroid Assay A) [µM] | Ent. A Max Activity (%) | EC50 [1] [µM] | Ent. A Max Activity (%) [2]
Cc1cccc(C)c1-c1cc2nc(n1)NS(=O)(=O)c1cccc(c1)C(=O)N1CCN(C3CCC(F)(F)CC3)C[C@@H](O2)[C@H]1CC(C)C [Compound 158] | – | – | +++ (key: +++ is >600%; ++ is 30-60%; + is <30%) | – | –
Cc1cccc(C)c1-c1cc2nc(n1)NS(=O)(=O)c1cccc(c1)C(=O)N1CCNC[C@@H]1CO2 [Compound 161, (8R)-13-(2,6-Dimethylphenyl)-10-oxa-17λ^6-thia-3,6,14,16,23-pentaazatetracyclo[16.3.1.111,15.03,8]tricosa-1(21),11,13,15(23),18(22),19-hexaene-2,17,17-trione] | – | – | – | 3 to 30 | ++ (++ is 30-60%)
Cc1cccc(C)c1-c1cc2nc(n1)NS(=O)(=O)c1cccc(c1)C(=O)N1CCN(C)C[C@@H]1CO2 [Compound 162, (8R)-13-(2,6-Dimethylphenyl)-6-methyl-10-oxa-17λ^6-thia-3,6,14,16,23-pentaazatetracyclo[16.3.1.111,15.03,8]tricosa-1(21),11,13,15(23),18(22),19-hexaene-2,17,17-trione] | – | – | – | 3 to 30 | ++ (++ is 30-60%)
Cc1cccc(C)c1-c1cc2nc(n1)NS(=O)(=O)c1cccc(c1)C(=O)N1CCN(CCC3(C(F)(F)F)CC3)C[C@@H]1CO2 [Compound 163, (8R)-13-(2,6-Dimethylphenyl)-6-{2-[1-(trifluoromethyl)cyclopropyl]ethyl}-10-oxa-17λ^6-thia-3,6,14,16,23-pentaazatetracyclo[16.3.1.111,15.03,8]tricosa-1(22),11(23),12,14,18,20-hexaene-2,17,17-trione] | – | – | – | < 1 | +++ (+++ is >60%)
Cc1cccc(C)c1-c1cc2nc(n1)NS(=O)(=O)c1cccc(c1)C(=O)N1CCN(Cc3ccccc3)C[C@@H]1CO2 [Compound 164, (8R)-6-Benzyl-13-(2,6-dimethylphenyl)-10-oxa-17λ^6-thia-3,6,14,16,23-pentaazatetracyclo[16.3.1.111,15.03,8]tricosa-1(21),11,13,15(23),18(22),19-hexaene-2,17,17-trione] | – | – | – | < 1 | +++ (+++ is >60%)
Cc1cccc(C)c1-c1cc2nc(n1)NS(=O)(=O)c1cccc(c1)C(=O)N1CCN(C(C)C)C[C@@H]1CO2 [Compound 165, (8R)-13-(2,6-Dimethylphenyl)-6-(propan-2-yl)-10-oxa-17λ^6-thia-3,6,14,16,23-pentaazatetracyclo[16.3.1.111,15.03,8]tricosa-1(21),11,13,15(23),18(22),19-hexaene-2,17,17-trione] | – | – | – | 3 to 30 | +++ (+++ is >60%)
Cc1cccc(C)c1-c1cc2nc(n1)NS(=O)(=O)c1cccc(c1)C(=O)N1CCN(C(=O)NC3CCCCCC3)C[C@@H]1CO2 [Compound 166, (8R)—N-Cycloheptyl-13-(2,6-dimethylphenyl)-2,17,17-trioxo-10-oxa-17λ^6-thia-3,6,14,16,23-pentaazatetracyclo[16.3.1.111,15.03,8]tricosa-1(21),11,13,15(23),18(22),19-hexaene-6-carboxamide] | – | – | – | 3 to 30 | +++ (+++ is >60%)
Cc1cccc(C)c1-c1cc2nc(n1)NS(=O)(=O)c1cccc(c1)C(=O)N1CCN(C(=O)N(C(C)C)C(C)C)C[C@@H]1CO2 [Compound 167, (8R)-13-(2,6-Dimethylphenyl)-2,17,17-trioxo-N,N-bis(propan-2-yl)-10-oxa-17λ^6-thia-3,6,14,16,23-pentaazatetracyclo[16.3.1.111,15.03,8]tricosa-1(21),11,13,15(23),18(22),19-hexaene-6-carboxamide] | – | – | – | 1 to 3 | +++ (+++ is >60%)
Cc1cccc(C)c1-c1cc2nc(n1)NS(=O)(=O)c1cccc(c1)C(=O)N1CCN(C(=O)C3CCCCC3)C[C@@H]1CO2 [Compound 168, (8R)-6-Cyclohexanecarbonyl-13-(2,6-dimethylphenyl)-10-oxa-17λ^6-thia-3,6,14,16,23-pentaazatetracyclo[16.3.1.111,15.03,8]tricosa-1(21),11,13,15(23),18(22),19-hexaene-2,17,17-trione] | – | – | – | < 1 | +++ (+++ is >60%)
Cc1cccc(C)c1-c1cc2nc(n1)NS(=O)(=O)c1cccc(c1)C(=O)N1CCN(Cc3ccccc3)CC1CO2 (centres unmarked) [Compound 169, 6-Benzyl-13-(2,6-dimethylphenyl)-10-oxa-17λ^6-thia-3,6,14,16,23-pentaazatetracyclo[16.3.1.111,15.03,8]tricosa-1(21),11,13,15(23),18(22),19-hexaene-2,17,17-trione] | – | – | – | < 1 | +++ (+++ is >60%)
Cc1cccc(C)c1-c1cc2nc(n1)NS(=O)(=O)c1cccc(c1)C(=O)N1CCNCC1C(C)O2 (centres unmarked) [Compound 172, 13-(2,6-dimethylphenyl)-9-methyl-10-oxa-17λ^6-thia-3,6,14,16,23-pentaazatetracyclo[16.3.1.111,15.03,8]tricosa-1(22),11,13,15(23),18,20-hexaene-2,17,17-trione] | – | – | – | – | + (+ is <300%)

Continued, in another order:

Ent. A Max Activity (%) (Enteroid Assay A) | EC50 (Enteroid Assay A) [µM] | SMILES | Ent. A Max Activity (%) | EC50 [1] [µM] | Ent. A Max Activity (%) [2]
++ (++ is 30-60%) | < 1 | Cc1cccc(C)c1-c1cc2nc(n1)NS(=O)(=O)c1cccc(c1)C(=O)N1C[C@@H](CN(CC(C)(C)C)C[C@@H]1CC(C)C)O2 [Compound 151] | – | – | –
++ (++ is 30-60%) | < 1 | Cc1cccc(C)c1-c1cc2nc(n1)NS(=O)(=O)c1cccc(c1)C(=O)N1C[C@@H](CN(C3CCC(F)(F)CC3)C[C@@H]1CC(C)C)O2 [Compound 152] | – | – | –
++ (++ is 30-60%) | < 1 | Cc1cccc(C)c1-c1cc2nc(n1)NS(=O)(=O)c1cccc(c1)C(=O)N1C[C@@H](CN(CCC(C)(C)C)C[C@@H]1CC(C)C)O2 [Compound 153] | – | – | –
+++ (+++ is >600%) | < 1 | Cc1cccc(C)c1-c1cc2nc(n1)NS(=O)(=O)c1cccc(c1)C(=O)N1C[C@@H](CN(CC(C)(C)C)[C@@H](CC(C)C)C1)O2 [Compound 154] | – | – | –
+++ (+++ is >600%) | < 1 | Cc1cccc(C)c1-c1cc2nc(n1)NS(=O)(=O)c1cccc(c1)C(=O)N1C[C@@H](CN(CCC(C)(C)C)[C@@H](CC(C)C)C1)O2 [Compound 155] | – | – | –
+++ (+++ is >600%) | < 1 | Cc1cccc(C)c1-c1cc2nc(n1)NS(=O)(=O)c1cccc(c1)C(=O)N1C[C@@H](CN(C3CC4(CCCC4)C3)[C@@H](CC(C)C)C1)O2 [Compound 156] | – | – | –
+++ (+++ is >600%) | < 1 | Cc1cccc(C)c1-c1cc2nc(n1)NS(=O)(=O)c1cccc(c1)C(=O)N1CCN(CCC(C)(C)C)C[C@H](O2)[C@H]1CC(C)C [Compound 157] | – | – | –
+++ (+++ is >600%) | < 1 | Cc1cccc(C)c1-c1cc2nc(n1)NS(=O)(=O)c1cccc(c1)C(=O)N1CCN(CCC(C)(C)C)C[C@@H](O2)[C@H]1CC(C)C [Compound 159] | – | – | –
+++ (+++ is >600%) | < 1 | Cc1cccc(C)c1-c1cc2nc(n1)NS(=O)(=O)c1cccc(c1)C(=O)N1CCN(C(C)C)CC1C(Cc1ccccc1)O2 (centres unmarked) [Compound 174, 9-benzyl-13-(2,6-dimethylphenyl)-6-(propan-2-yl)-10-oxa-17λ^6-thia-3,6,14,16,23-pentaazatetracyclo[16.3.1.111,15.03,8]tricosa-1(22),11,13,15(23),18,20-hexaene-2,17,17-trione] | – | – | –
